# Measured values published in patent US12653776B2, “Methods of treatment of cancer by continuous infusion of coenzyme Q10” (priority 2013, dated 2026).
# What was measured:
# solid tumors = assay: Phase 1a/b study, 96-hour continuous IV infusion: tumor response and PET; assay type: in vivo, human
# Description: Assessments of the antitumor activity of coenzyme Q10 is performed at the end of Cycle 2 and every 2 cycles thereafter using standard techniques such as computerized tomography (CT) or magnetic resonance imaging (MRI) for patients with measurable disease. Response is evaluated using Response Evaluation Criteria in Solid Tumors (RECIST) v1.1. Patients who experience no unacceptable toxicity or disease progression, may receive additional 28-day cycles for up to 1 year on Arm 1 or 2. Patients on Arm 1 who progress may elect to continue coenzyme Q10 treatment in combination with gemcitabine, 5-FU, or docetaxel at the treating physician's discretion. Once a dose level of coenzyme Q10 monotherapy is evaluated and the CRC determines it safe to escalate to the next dose level, Cohort 1 of Treatment Arm 2 of coenzyme Q10 in combination with chemotherapy will open to accrual. Cohort 1 of Arm 2 patients are enrolled onto one of 3 chemotherapies, gemcitabine, 5-FU, or docetaxel. Cycle 1 of combination therapy (Arm 2) is 6 weeks in duration for patients with coenzyme Q10 administered twice weekly on Mondays and Wednesday for 6 weeks and chemotherapy administered on Fridays, Days 19, 26 and 33. Cycles 2-12 are 4 weeks in duration with coenzyme Q10 administered twice weekly on Mondays and Wednesdays for 4 weeks and chemotherapy administered on Fridays, Days 5, 12 and 19. Dose limiting toxicities are assessed during Cycle 1. Response is assessed after Cycle 2 (10 weeks) and responders who continue onto Cycles 2-12 are assessed every 2 cycles (8 weeks). […] Patients on Arm 2 who progress on one type of chemotherapy may not switch to one of the other chemotherapy agents in combination with coenzyme Q10. However, if the chemotherapy component (i.e., 5-FU, gemcitabine, or docetaxel) of combination therapy is discontinued due to chemotherapy-related toxicity, patients may continue to receive coenzyme Q10 as monotherapy.
# Blood samples for pharmacokinetic and pharmacodynamic analyses are collected during each cycle of monotherapy and combination therapy. Urine samples for determination of coenzyme Q10 renal clearance are collected only during Cycle 1 of monotherapy and combination therapy. A PET scan is performed within 2 weeks prior to starting treatment and after 2 weeks of coenzyme Q10 treatment, and 8 weeks of treatment on Arm 1 or 10 weeks of treatment on Arm 2. Core biopsies (2-3) are performed at the time of baseline and Week 2 PET scan for patients who opt-in to participate in these exploratory studies.
# [1] = system: liver chloromas (MIA C51 clone); assay: Liver chloroma rat model, survival; assay type: in vivo, rats
# Description: The effect of dosing schedule of coenzyme Q10 was also investigated in rats bearing liver or lung chloromas. Rats were transplanted with liver or lung clones of malignant chloromas derived from a stable myelogenous leukemia (chloroleukemia) cell line, MIA C51 (see. e.g., Jimenez and Yunis (1987) Science 238: 1278-1280). The clones have been selected to home to and form tumors in the liver or lungs, respectively. Rats were randomized to receive either no treatment, injection 3 times a day with 40 mg/mL (4%) coenzyme Q10, or continuous infusion of 40 mg/mL (4%) coenzyme Q10 via an implanted pump, to deliver for each regimen a total dose of 50 mg/kg body weight per day. […] For example, at Day 189 in the liver chloroma model, 45 of 50 rats were alive in the continuous infusion treatment group compared with 26 of 50 rats alive in the injection treatment group. All control animals were dead at Day 30.
# chloroleukemia (MIA C51) = details: IP
# [2] = system: LnCaP human prostate adenocarcinoma cells; assay: Prostate cancer (LnCaP) mouse model, survival; assay type: in vivo, immunocompromised mice
# Description: The observed improvement in animal cohorts administered coenzyme Q10 as a continuous infusion was repeated in other animal models of cancer. For example. […] LnCaP human prostate adenocarcinoma cells were injected into immunocompromised mice. Coenzyme Q10 was administered using two different dosing regimens. One cohort was administered a total dose of 75 mg/kg body weight per day by dosing 25 mg/kg body weight every 8 hours (multiple bolus regimen). In a second cohort, an infusion pump was surgically installed in the animals to facilitate continuous infusion of coenzyme Q10 at a total dose of 75 mg/kg body weight per day. Treatment was continued throughout the entire duration of the study.
# [3] = First-in-human Phase 1 study (CTL0510), 4-hour IV infusion 3 times weekly: safety
# Description: (§1) The first-in-human Phase 1 study with coenzyme Q10 nanosuspension (40 mg/ml) was conducted in 50 patients with advanced solid tumors. The objectives were to assess the safety, maximum tolerated dose, PK and PD of coenzyme Q10, specifically a 4% coenzyme Q10 nanosuspension formulation (as described in WO 2011/112900, the entire contents of which are expressly incorporated herein by reference), administered as a 4-hour IV infusion 3 times weekly in 28-day cycles. Nine dose levels were explored ranting from 5.62 to 139 mg/kg. Plasma concentration profiles and PK parameters were determined from blood samples collected pre-dose and at intervals to 48 hours post-dose.
# advanced solid tumors = assay: First-in-human Phase 1 study (CTL0510), 4-hour IV infusion 3 times weekly: tumor response; assay type: in vivo
# Description: as §1
# [4] = Patient 1, 66 mg/kg week monotherapy, end of two cycles
substance,measurement,setting,value
coenzyme Q10,patients evaluable for efficacy showing various responses,"solid tumors; Eight out of twelve patients, after dose level 2",75%
same,multiomics tissue analysis,"solid tumors; Patient 1, 66 mg/kg week monotherapy",switch from anaerobic driven markers to oxidative phosphorylation
same,cervical lymph node metastases,solid tumors; [4],disappearance of cervical lymph node metastases
same,size of the target lesion,solid tumors; [4],minimal changes
same,decrease on PET-SUV,"solid tumors; Patient 1, gastric adenocarcinoma, 66 mg/kg week monotherapy, end of two cycles",40%
same,PET/CT response,solid tumors; Patient 1 after switch to combination arm adding weekly docetaxel,again showed metabolic responses by PET/CT
same,"Max SUV, Right iliac bone lesion","solid tumors; Patient 2, gemcitabine + coenzyme Q10 66 mg/kg, Week 10 PET, from 2.3",1.9
same,"Max SUV, Omentum lesion 2","solid tumors; Patient 2, gemcitabine + coenzyme Q10 66 mg/kg, Week 10 PET, from 3.5",2.8
same,non-target lesion response,"solid tumors; Patient 2, gemcitabine + coenzyme Q10 66 mg/kg, lesion in the abdomen",complete response in one of the non-target lesions
same,"Max SUV, Omentum lesion 1","solid tumors; Patient 2, metastatic bladder cancer, gemcitabine + coenzyme Q10 66 mg/kg, Week 10 PET, previous value 1.7",0.8
same,outcomes by RECIST criteria,solid tumors; expected at the end of the ongoing study,clinically relevant outcomes
same,antitumor activity in a variety of solid tumors,"solid tumors; gastric, pancreatic, colon, head and neck, NSCLC, mesothelioma, TN breast cancer",showed early activity at low doses
same,survival compared to control,"[1]; both continuous infusion and injection 3 times a day, 50 mg/kg per day",significantly prolonged survival
same,rats alive at Day 189,"[1]; continuous infusion of 40 mg/mL (4%) coenzyme Q10, 50 mg/kg body weight per day",45 of 50
same,effectiveness of continuous infusion regimen,"[1]; continuous infusion vs injection 3 times a day, 50 mg/kg per day",much more effective than the injection regimen
same,rats alive at Day 189,"[1]; injection 3 times a day of 40 mg/mL (4%) coenzyme Q10, total 50 mg/kg body weight per day",26 of 50
same,survival in animals with metastasis to the lungs and liver,chloroleukemia (MIA C51); 50 mg/kg/day,significant increase in survival
same,limb paralysis (paraplegia due to brain metastasis),chloroleukemia (MIA C51); (St) mg/kg/day,complete resolution of limb paralysis
same,survival rate,[2]; continuous infusion 75 mg/kg body weight per day vs multiple bolus regimen,even higher survival rate
same,survival rate,"[2]; multiple bolus regimen, total 75 mg/kg body weight per day (25 mg/kg every 8 hours)",higher survival rate than the untreated control
same,serious adverse events (bleeding) resulting in the patient's death due to hemothorax,[3]; 104.3 mg/kg dose level,One
same,"AST increased, laboratory AE",[3]; in vivo,8%
same,CTCAE grade of the majority of adverse events,[3]; in vivo,grade 1 or 2
same,"PTT prolonged, laboratory AE",[3]; in vivo,80%
same,SAEs reported as possibly related to coenzyme Q10,[3]; in vivo,Two
same,"alkaline phosphatase increased, laboratory AE",[3]; in vivo,2%
same,"arthritis, AE related to coenzyme Q10",[3]; in vivo,4%
same,"chills, AE related to coenzyme Q10",[3]; in vivo,6%
same,dose limiting toxicities (DLTs),[3]; in vivo,no dose limiting toxicities (DLTs) were identified
same,"fatigue, AE related to coenzyme Q10",[3]; in vivo,24%
same,"fever, AE related to coenzyme Q10",[3]; in vivo,8%
same,"headache, AE related to coenzyme Q10",[3]; in vivo,10%
same,increased INR considered related to coenzyme Q10,[3]; in vivo,68%
same,"nausea, AE related to coenzyme Q10",[3]; in vivo,8%
same,patients who died due to disease progression or intercurrent illness during the study,[3]; in vivo,Twenty
same,patients who discontinued treatment due to AEs reported as unrelated to treatment,[3]; in vivo,Four
same,patients who experienced abnormal INR values,[3]; in vivo,38 patients
same,patients with clinically significant increased INR,[3]; in vivo,14 patients
same,"platelet count decreased, laboratory AE",[3]; in vivo,14%
same,vital signs or physical examination findings,[3]; in vivo,No clinically significant changes
same,progressive disease,advanced solid tumors; 15 patients,30%
same,best response stable disease,advanced solid tumors; 23 of 50 patients,46%
same,partial response,advanced solid tumors; patient with a sarcoma,One
